Data taken from publication PMC7377239, “Cardiovascular Effects of Polychlorinated Biphenyls and Their Major Metabolites” (Environmental Health Perspectives, 2020).
Structures can show the parent of a compound that is named as a salt. Where two headings read alike, the source gives them in different places.

Columns and labels:
[1] = tested on: iPSC-CMs, iPSC-ECs and HUVECs phenotypes; experiment: ToxPi 2.0 integration of POD values and physicochemical descriptors; design: species or system human; conditions: ToxPi-scaled (0-1) score; for huvec.cyto.24hr / huvec.mito.24hr / huvec.mitoint.24hr / huvec.nma.24hr / huvec.tc.24hr / huvec.mtl.18hr / huvec.tlps.18hr / huvec.tta.18hr / huvec.ttl.18hr: HUVECs; for huvec.mtl.18hr / huvec.tlps.18hr / huvec.tta.18hr / huvec.ttl.18hr / endo.mtl.18hr / endo.tlps.18hr / endo.tta.18hr / endo.ttl.18hr: tube formation; for cm.amp.avg.90min / cm.amp.cv.90min / cm.bpm.90min / cm.cam.90min / cm.decay.rise.90min / cm.mii.90min / cm.mito.90min / cm.spacing.cv.90min / cm.tc.90min / cm.amp.avg.24hrs / cm.amp.cv.24hrs / cm.bpm.24hrs / cm.cam.24hrs / cm.decay.rise.24hrs / cm.mii.24hrs / cm.mito.24hrs / cm.spacing.cv.24hrs / cm.tc.24hrs: iPSC cardiomyocytes; for endo.cyto.24hr / endo.mito.24hr / endo.mitoint.24hr / endo.nma.24hr / endo.tc.24hr / endo.mtl.18hr / endo.tlps.18hr / endo.tta.18hr / endo.ttl.18hr: iPSC endothelial cells
Procedure, shortened: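 Phenotypic readouts in iPSC-cardiomyocytes, iPSC-endothelial cells and HUVECs were normalised to 0.5% DMSO vehicle and fitted to a four-parameter logistic model. POD set at one SD cutoff of vehicle means, with 100 μM assigned when no response. PODs and physicochemical descriptors combined in ToxPi 2.0 scores.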

[2] = tested on: HUVECs; experiment: Tube formation (tubulogenesis) assay in HUVECs, 18 h; assay type: cell-based, human; conditions: Homo sapiens, HUVEC, 18 h, HUVEC
Procedure, shortened: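 HUVECs (passage 1–5) seeded on reduced-growth-factor basement membrane and exposed to compounds overnight at 37°C, 5% CO2, in 2× maintenance medium with 12.5 ng/mL VEGF; 0.5% DMSO vehicle. Calcein AM-stained tube networks imaged and analysed; vehicle-normalized readouts fit to four-parameter logistic, POD set at one SD of vehicle means.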

[3] = tube formation mtl, read-out: POD huvec.mtl.18hr
[4] = tube formation tlps, read-out: POD huvec.tlps.18hr
[5] = tube formation tta, read-out: POD huvec.tta.18hr
[6] = tube formation ttl, read-out: POD huvec.ttl.18hr

Structure (SMILES) | huvec.cyto.24hr [1] | huvec.mito.24hr [1] | huvec.mitoint.24hr [1] | huvec.nma.24hr [1] | huvec.tc.24hr [1] | huvec.mtl.18hr [1] | huvec.tlps.18hr [1] | huvec.tta.18hr [1] | huvec.ttl.18hr [1] | cm.amp.avg.90min [1] | cm.amp.cv.90min [1] | cm.bpm.90min [1] | cm.cam.90min [1] | cm.decay.rise.90min [1] | cm.mii.90min [1] | cm.mito.90min [1] | cm.spacing.cv.90min [1] | cm.tc.90min [1] | cm.amp.avg.24hrs [1] | cm.amp.cv.24hrs [1] | further results
COc1ccc(-c2cccc(Cl)c2)cc1Cl [4-OMe-PCB 11, 4-methoxy-3,3′-dichlorobiphenyl] | 0.2668 | 0.3305 | 0.3626 | 0.3507 | 0.2668 | 0.5304 | 0.2567 | 0 | 0.6633 | 0.6528 | 0.2486 | 0.4773 | 0.4476 | 0.5303 | 0.1771 | 0.5027 | 0.1369 | 0.5138 | 0.152 | 0.06047 | cm.bpm.24hrs [1]: 0.441; cm.cam.24hrs [1]: 0.1329; cm.decay.rise.24hrs [1]: 0.2452; cm.mii.24hrs [1]: 0.5873; cm.mito.24hrs [1]: 0.2518; cm.spacing.cv.24hrs [1]: 0.1755; cm.tc.24hrs [1]: 0.2526; endo.cyto.24hr [1]: 0; endo.mito.24hr [1]: 0; endo.mitoint.24hr [1]: 0; endo.nma.24hr [1]: 0; endo.tc.24hr [1]: 0; endo.mtl.18hr [1]: 0; endo.tlps.18hr [1]: 0.2016; endo.tta.18hr [1]: 1; endo.ttl.18hr [1]: 1; minimal effective concentration [2, 3]: 9.33 µM; minimal effective concentration [2, 4]: 25.8 µM; minimal effective concentration [2, 5]: 100 µM; minimal effective concentration [2, 6]: 1.22 µM
COc1cc(Cl)c(-c2cc(Cl)ccc2Cl)cc1Cl [4-OMe-PCB 52, 4-methoxy-2,2′,5,5′-tetrachlorobiphenyl] | 0.503 | 0.6182 | 0.7163 | 0.4778 | 0.503 | 0.3949 | 0.3694 | 0 | 0 | 0.7151 | 0.1921 | 0.6456 | 0.5317 | 0.5533 | 0.2088 | 0.6868 | 0.09243 | 0.4554 | 0 | 0.07106 | cm.bpm.24hrs [1]: 0.2075; cm.cam.24hrs [1]: 0.1487; cm.decay.rise.24hrs [1]: 0.2631; cm.mii.24hrs [1]: 0.763; cm.mito.24hrs [1]: 0.2211; cm.spacing.cv.24hrs [1]: 0.2504; cm.tc.24hrs [1]: 0.2416; endo.cyto.24hr [1]: 0.1456; endo.mito.24hr [1]: 0.1456; endo.mitoint.24hr [1]: 0; endo.nma.24hr [1]: 0.1018; endo.tc.24hr [1]: 0.1602; endo.mtl.18hr [1]: 0.06827; endo.tlps.18hr [1]: 0.09286; endo.tta.18hr [1]: 0.06026; endo.ttl.18hr [1]: 0.05573; minimal effective concentration [2, 3]: 17.1 µM; minimal effective concentration [2, 4]: 14.2 µM; minimal effective concentration [2, 5]: 100 µM; minimal effective concentration [2, 6]: 100 µM
O=S(=O)(O)Oc1ccc(-c2cccc(Cl)c2)cc1Cl [4-PCB 11 sulfate] | 0.07428 | 0.09457 | 0.4402 | 0.4481 | 0.07428 | 0.4352 | 0.2468 | 0 | 0 | 0.5438 | 0.207 | 0.3056 | 0 | 0.417 | 0 | 0 | 0.1011 | 0 | 0.2154 | 0.3772 | cm.bpm.24hrs [1]: 0.2853; cm.cam.24hrs [1]: 0.3798; cm.decay.rise.24hrs [1]: 0.3284; cm.mii.24hrs [1]: 0.1874; cm.mito.24hrs [1]: 0.571; cm.spacing.cv.24hrs [1]: 0.2596; cm.tc.24hrs [1]: 0.6332; endo.cyto.24hr [1]: 0; endo.mito.24hr [1]: 0; endo.mitoint.24hr [1]: 0; endo.nma.24hr [1]: 0; endo.tc.24hr [1]: 0; endo.mtl.18hr [1]: 0.1436; endo.tlps.18hr [1]: 0.3311; endo.tta.18hr [1]: 0.1419; endo.ttl.18hr [1]: 0.1256; minimal effective concentration [2, 3]: 14.3 µM; minimal effective concentration [2, 4]: 27.2 µM; minimal effective concentration [2, 5]: 100 µM; minimal effective concentration [2, 6]: 100 µM
O=S(=O)(O)Oc1cc(Cl)c(-c2cc(Cl)ccc2Cl)cc1Cl [4-PCB 52 sulfate] | 0.3025 | 0.4046 | 0.09717 | 0.1382 | 0.3025 | 0.4309 | 0.4338 | 0 | 0 | 0.5595 | 0.2844 | 0.3731 | 0.9201 | 0.4741 | 0.3306 | 0.9162 | 0.09545 | 0.9127 | 0 | 0.4327 | cm.bpm.24hrs [1]: 0.3667; cm.cam.24hrs [1]: 0.3358; cm.decay.rise.24hrs [1]: 0.4673; cm.mii.24hrs [1]: 0.2133; cm.mito.24hrs [1]: 0.5368; cm.spacing.cv.24hrs [1]: 0.207; cm.tc.24hrs [1]: 0.5686; endo.cyto.24hr [1]: 0.1547; endo.mito.24hr [1]: 0.1547; endo.mitoint.24hr [1]: 0; endo.nma.24hr [1]: 0; endo.tc.24hr [1]: 0.1212; endo.mtl.18hr [1]: 0.2716; endo.tlps.18hr [1]: 0.4577; endo.tta.18hr [1]: 0.2209; endo.ttl.18hr [1]: 0.2158; minimal effective concentration [2, 3]: 14.6 µM; minimal effective concentration [2, 4]: 10.1 µM; minimal effective concentration [2, 5]: 100 µM; minimal effective concentration [2, 6]: 100 µM
Oc1cc(Cl)cc(-c2cccc(Cl)c2)c1 [5-OH-PCB 11] | 0.4815 | 0.5672 | 0.6755 | 0.5619 | 0.4815 | 0.5955 | 0 | 0 | 0.1684 | 0.6478 | 0.2678 | 0.7407 | 0.7498 | 0.5778 | 0.4013 | 0.8059 | 0.07982 | 0.8069 | 0.069 | 0.2233 | cm.bpm.24hrs [1]: 0.1451; cm.cam.24hrs [1]: 0.2664; cm.decay.rise.24hrs [1]: 0.2666; cm.mii.24hrs [1]: 0.6539; cm.mito.24hrs [1]: 0.4142; cm.spacing.cv.24hrs [1]: 0.2695; cm.tc.24hrs [1]: 0.5144; endo.cyto.24hr [1]: 0.1503; endo.mito.24hr [1]: 0.1503; endo.mitoint.24hr [1]: 0.08226; endo.nma.24hr [1]: 0.3443; endo.tc.24hr [1]: 0.1482; endo.mtl.18hr [1]: 0.3075; endo.tlps.18hr [1]: 0.4586; endo.tta.18hr [1]: 0.2424; endo.ttl.18hr [1]: 0.241; minimal effective concentration [2, 3]: 6.98 µM; minimal effective concentration [2, 4]: 100 µM; minimal effective concentration [2, 5]: 100 µM; minimal effective concentration [2, 6]: 32.7 µM
